Experimental data: US12528790B2, “Amide derivative having antiviral activity” (Shionogi & Co., Ltd., priority 2020, dated 2026)

Experiments:
[1] = test system: RSV A2 strain; assay: In vitro CPE (CytoPathic Effect) inhibition effect evaluation test, RSV type A; type: cell-based; conditions: human respiratory syncytial virus; inhibitory effect against RSV type A (RSV A2 strain), HEp-2 cells, CPE inhibition; read-out: EC50
Summary of the method: (§1)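 EC50 is the concentration giving 50% inhibition of virus-induced cytopathic effect, fitted by nonlinear regression from CellTiter-Glo 2.0 viability. Compounds in 3-fold series were co-incubated at 37 °C with HEp-2 cells and RSV: A2 strain for 4 days, B (Wash/18537) for 5 days; uninfected wells served as control.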

[2] = test system: RSV B (Wash/18537 strain); assay: In vitro CPE (CytoPathic Effect) inhibition effect evaluation test, RSV type B; type: cell-based; conditions: human respiratory syncytial virus, inhibitory effect against RSV type B, CPE inhibition; read-out: EC50
Summary of the method: as §1

For CC(F)(F)c1nc(N2CC3(CCOCC3)c3cc(OC4CCN(c5ncc(F)cn5)CC4)ncc32)ncc1C(=O)N[C@]1(C(=O)O)[C@@H]2CC3C[C@H]1C[C@@](F)(C3)C2 [Compound I-599], the EC50 [1] was less than 10 nM and the EC50 [2] was less than 10 nM.
For CC(F)(F)c1nc(N2CC3(CCCCC3)c3cc(OC4CCN(c5ncc(F)cn5)CC4)ncc32)ncc1C(=O)N[C@]1(C(=O)O)[C@@H]2CC3C[C@H]1C[C@@](F)(C3)C2 [Compound I-600], the EC50 [1] was less than 10 nM and the EC50 [2] was less than 10 nM.
With CC(F)(F)c1nc(N2CC3(CCOCC3)c3cc(O[C@H]4CC[C@H](N5CC(F)(F)C5)CC4)ncc32)ncc1C(=O)N[C@]1(C(=O)O)[C@@H]2CC3C[C@H]1C[C@@](F)(C3)C2 [Compound I-601] the EC50 [1] was less than 10 nM and the EC50 [2] was less than 10 nM.
With CC(F)(F)c1nc(N2CC3(CCOCC3)c3cc(-n4ncc5c4CCN(CC(F)(F)F)C5)ncc32)ncc1C(=O)NC1(C(=O)O)C2CC3CC(C2)CC1C3 (stereo not drawn) [Compound I-602] the EC50 [1] was less than 10 nM and the EC50 [2] was less than 10 nM.
CC(F)(F)c1nc(N2CC3(CC3)c3cc(OC4CCN(c5ncc(F)cn5)CC4)ccc32)ncc1C(=O)NC1(C(=O)O)C2CC3CC(C2)CC1C3 (stereo not drawn) [Compound I-603] showed an EC50 [1] of less than 10 nM and an EC50 [2] of less than 10 nM.
CC(F)(F)c1nc(N2CC3(CC3)c3cc(OC4CCN(CC(F)(F)F)CC4)ccc32)ncc1C(=O)NC1(C(=O)O)C2CC3CC(C2)CC1C3 (stereo not drawn) [Compound I-604] was tested, and the EC50 [1] was less than 10 nM and the EC50 [2] was less than 10 nM.
Compound CC(F)(F)c1nc(N2CC3(CCOCC3)c3cc(OC4CCN(CC(F)(F)F)CC4)ncc32)ncc1C(=O)N[C@]1(C(=O)O)[C@@H]2CC3C[C@H]1C[C@@](F)(C3)C2 [Compound I-605] has an EC50 [1] of less than 10 nM and an EC50 [2] of less than 10 nM.
Work on O=C(NC1(C(=O)O)C2CC3CC(C2)CC1C3)c1cnc(N2CC3(CCCCC3)c3cc(-n4ncc5c4CCN(CC(F)(F)F)C5)ccc32)nc1C(F)(F)F (stereo not drawn) [Compound I-606] yielded an EC50 [1] of less than 10 nM and an EC50 [2] of less than 10 nM.
CC(F)(F)c1nc(N2CC3(CCCCC3)c3cc(-n4ncc5c4CCN(CC(F)(F)F)C5)ccc32)ncc1C(=O)NC1(C(=O)O)C2CC3CC(C2)CC1C3 (stereo not drawn) [Compound I-607] gave an EC50 [1] of less than 10 nM and an EC50 [2] of less than 10 nM.
In the case of CC(F)(F)c1nc(N2CC3(CCCCC3)c3cc(C(=O)N4CCN(CC(F)(F)F)CC4)ccc32)ncc1C(=O)NC1(C(=O)O)C2CC3CC(C2)CC1C3 (stereo not drawn) [Compound I-608], the EC50 [1] is reported as less than 10 nM and the EC50 [2] is reported as less than 10 nM.
COC1CCN(C(=O)c2ccc3c(c2)C2(CCCCC2)CN3c2ncc(C(=O)NC3(C(=O)O)C4CC5CC(C4)CC3C5)c(C(C)(F)F)n2)CC1 (stereo not drawn) [Compound I-609] gave an EC50 [1] of less than 10 nM and an EC50 [2] of less than 10 nM.
CC(F)(F)c1nc(N2CC3(CCCCC3)c3cc(C(=O)N4CCC(C(F)F)CC4)ccc32)ncc1C(=O)NC1(C(=O)O)C2CC3CC(C2)CC1C3 (stereo not drawn) [Compound I-610] was tested, and the EC50 [1] was less than 10 nM and the EC50 [2] was less than 10 nM.
CC(F)(F)c1nc(-c2cn(C3CCC(F)(F)CC3)c3cc(O[C@H]4CC[C@H](N5CC(F)(F)C5)CC4)ccc23)ncc1C(=O)N[C@]1(C(=O)O)[C@@H]2CC3C[C@H]1C[C@@](F)(C3)C2 [Compound I-611] was tested, and the EC50 [1] was less than 10 nM and the EC50 [2] was less than 10 nM.
Work on CC(F)(F)CN1CCC(Oc2ccc3c(-c4ncc(C(=O)NC5(C(=O)O)C6CC7CC(C6)CC5C7)c(C(C)(F)F)n4)cn(C4CCOCC4)c3c2)CC1 (stereo not drawn) [Compound I-612] yielded an EC50 [1] of less than 10 nM and an EC50 [2] of less than 10 nM.
For CC[C@@H](C)n1cc(-c2ncc(C(=O)NC3(C(=O)O)C4CC5CC(C4)CC3C5)c(C(F)(F)F)n2)c2ccc(O[C@H]3CC[C@H](N4CC(F)(F)C4)CC3)cc21 (stereo partly drawn) [Compound I-613], the EC50 [1] was less than 10 nM and the EC50 [2] was less than 10 nM.
Compound O=C(NC1(C(=O)O)C2CC3CC(C2)CC1C3)c1cnc(-c2cn(C3CCOCC3)c3cc(O[C@H]4CC[C@@H](N5CC(F)(F)C5)CC4)ccc23)nc1C(F)(F)F (stereo partly drawn) [Compound I-614] has an EC50 [1] of less than 10 nM and an EC50 [2] of less than 10 nM.
Work on COCC(C)n1cc(-c2ncc(C(=O)NC3(C(=O)O)C4CC5CC(C4)CC3C5)c(C(C)(F)F)n2)c2ccc(OC3CCN(CC(C)(F)F)CC3)cc21 (stereo not drawn) [Compound I-615] yielded an EC50 [1] of less than 10 nM and an EC50 [2] of less than 10 nM.
In the case of CC(C)n1cc(-c2ncc(C(=O)NC3(C(=O)O)C4CC5CC(C4)CC3C5)c(C(F)(F)F)n2)c2ccc(O[C@H]3CC[C@H](N4CC(F)(F)C4)CC3)cc21 (stereo partly drawn) [Compound I-616], the EC50 [1] is reported as less than 10 nM and the EC50 [2] is reported as less than 10 nM.
For CCC(C)n1cc(-c2ncc(C(=O)NC3(C(=O)O)C4CC5CC(C4)CC3C5)c(C(F)(F)F)n2)c2ccc(O[C@H]3CC[C@H](N4CC(F)(F)C4)CC3)cc21 (stereo partly drawn) [Compound I-617], the EC50 [1] was less than 10 nM and the EC50 [2] was less than 10 nM.
CC(C)n1cc(-c2ncc(C(=O)NC3(C(=O)O)C4CC5CC(C4)CC3C5)c(C(C)(F)F)n2)c2ccc(O[C@H]3CC[C@H](N4CC(F)(F)C4)CC3)cc21 (stereo partly drawn) [Compound I-618] gave an EC50 [1] of less than 10 nM and an EC50 [2] of less than 10 nM.
In the case of COC[C@@H](C)n1cc(-c2ncc(C(=O)NC3(C(=O)O)C4CC5CC(C4)CC3C5)c(C(C)(F)F)n2)c2ccc(OC3CC(N4CC(F)(F)C4)C3)cc21 (stereo partly drawn) [Compound I-620], the EC50 [1] is reported as less than 10 nM and the EC50 [2] is reported as less than 10 nM.
